Assay results as given in US9480680B2, “Stable pharmaceutical composition of clopidogrel free base for oral and parenteral delivery” (priority 2013, dated 2016).
Read-outs that look alike come from different tables or passages of the source. Values belong to the compound of their own block, whether it stands above or below them.

Tests used:
[1] = for Concentration, Aqueous Phase / Concentration, Oil Phase: 600 mg drug in 20 g soy bean oil + 20 g DI water, stirred at room temperature 24 hours, HPLC; for pH of aqueous phase: aqueous phase at end of partition study; for O/W partition ratio: soy bean oil / DI water, room temperature 24 hours
Experimental: In order to determine percentage of clopidogrel partitioning in oil and aqueous phases, a partition study was conducted using clopidogrel biosulfate and clopidogrel free base. 600 mg of drug was weighed out and added to a beak containing equal weight of soy bean oil and DI water (20 g each). Stir the mixture in room temperature for 24 hours. At the end of study, samples from both phases were withdrawn and tested by HPLC as described in Example 14. The pH of the aqueous phase were measured.

[2] = cited from earlier work
platelet aggregation = conditions: cited from earlier work
[3] = 5 min
Source text: As used herein the disease or condition refers to any disease or condition which may be treated using clopidogrel containing medicine for the prevention of atherothrombotic events such as myocardial infarction, stroke, peripheral arterial disease, acute coronary syndrome, and cardio-vascular death.

[4] = cited from earlier work; remark: listed apart in the source

Concentration, Aqueous Phase [1]: 15000 µg/mL
Concentration, Oil Phase [1]: 17000 µg/mL
pH of aqueous phase [1]: 2
clopidogrel staying in the aqueous phase ([1]; soy bean oil / DI water partition study): about 50%
O/W partition ratio [1]: 1.1
SMILES: COC(=O)[C@H](c1ccccc1Cl)N1CCc2sccc2C1 [Clopidogrel bisulfate]
stability under increased moisture and temperature ([2]; listed as clopidogrel biosulfate): relatively unstable

Concentration, Aqueous Phase [1]: 6 µg/mL
Concentration, Oil Phase [1]: 29000 µg/mL
pH of aqueous phase [1]: 7
amount of clopidogrel in the aqueous phase ([1]; soy bean oil / DI water partition study, result in words): negligible
O/W partition ratio [1]: 4833
degradation in diluted NaOH solution [3]: degraded completely in 5 minutes
SMILES: COC(=O)[C@H](c1ccccc1Cl)N1CCc2sccc2C1 [Clopidogrel free base, methyl (+)-(S)-α-(o-chlorophenyl)-6,7-dihydrothieno[3,2-c]pyridine-5(4H)-acetate]
biological / pharmacological activity (platelet aggregation): biologically active
solubility in ethyl ether ([2]; ethyl ether): practically insoluble
stability under increased moisture and temperature [2]: unstable
solubility in methanol ([2]; methanol): dissolves freely
solubility in methylene chloride ([2]; methylene chloride): dissolves sparingly
solubility at pH 1 ([2]; pH 1): freely soluble
solubility in water at neutral pH ([2]; water, neutral pH): practically insoluble

SMILES: O=C(O)[C@H](c1ccccc1Cl)N1CCc2sccc2C1 [Impurity A]
biological / pharmacological activity (platelet aggregation): no pharmacological activity

SMILES: COC(=O)[C@@H](c1ccccc1Cl)N1CCc2sccc2C1 [Impurity C, methyl ( )-(R)-(o-chlorophenyl)-6,7-dihydrothieno[3,2-c]pyridine-5(4H)-acetate]
anti-aggregation activity (platelet aggregation): does not exhibit any anti-aggregation activity
convulsions ([4]; high doses of animals): can evoke convulsions
tolerability ([4]; in vivo): poorly tolerated
